Reference: patent publication US20250214977A1, “STAT6 INHIBITORS AND USES THEREOF” (Kymera Therapeutics, Inc., priority 2024, published 2025)

Test system: Phosphorylation of STAT6 in human PBMC (CD19+ B cells)
Experiment: Phosphorylated STAT6 (pSTAT6) flow cytometry assay in human PBMC, IL-4 stimulated
Format: cell-based
Conditions: compound 1 hour, 1 ng/ml IL-4 for 15 minutes, read-out: STAT6 IL4 pSTAT6 assay in PBMC: Average IC50
In short: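 Human PBMC preincubated 1 h at 37 °C with compound (9-point 1:3 series, top up to 30 μM), then stimulated with 1 ng/ml IL-4 for 15 min. After fixation, methanol permeabilization and staining, pSTAT6 quantified in CD19+ B cells by flow cytometry; four-parameter fit of inhibition.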

Row | Compound | IC50 [µM]
1 | CC(=O)NCc1ccc(CC(=O)N2CCC=C(c3ccc4oc(C(=O)N(C)C)cc4c3)C2)cc1 [Example I-252] | > 100
2 | CN(C)C(=O)c1cc2cc(C3=CCCN(C(=O)Cn4nnc5ccccc54)C3)ccc2o1 [Example I-254] | > 100
3 | CN(C)C(=O)c1cc2cc(C3=CCCN(C(=O)CC4CCOCC4)C3)ccc2o1 [Example I-255] | > 100
4 | COc1ccc(CC(=O)N2CCC=C(c3ccc4oc(C(=O)N(C)C)cc4c3)C2)cc1C#N [Example I-256] | > 100
5 | CN(C)C(=O)c1cc2ccc(C3=CCCN(C(=O)Cc4cccnc4O)C3)cc2[nH]1 [Example I-257] | > 100
6 | CN(C)C(=O)c1cc2cc(C3=CCCN(C(=O)Cc4ccc5c(c4)CN(C(=O)OC(C)(C)C)CC5)C3)ccc2o1 [Example I-259] | > 100
7 | CN(C)C(=O)c1cc2cc(C3=CCCN(C(=O)Cn4cccn4)C3)ccc2o1 [Example I-261] | > 100
8 | CN(C)C(=O)c1cc2cc(C3=CCCN(C(=O)Cc4ccccn4)C3)ccc2o1 [Example I-263] | > 100
9 | CN(C)C(=O)c1cc2cc(C3=CCCN(C(=O)CCn4ccc5ccccc54)C3)ccc2o1 [Example I-264] | > 100
10 | CN(C)C(=O)c1cc2cc(C3=CCCN(C(=O)CCn4cnc5ccccc54)C3)ccc2o1 [Example I-265] | > 100
11 | CN(C)C(=O)c1cc2cc(C3=CCCN(C(=O)CCc4ccc5ccccc5c4)C3)ccc2o1 [Example I-266] | > 100
12 | CN(C)C(=O)c1cc2cc(C3=CCCN(C(=O)CCc4nc5ccccc5[nH]4)C3)ccc2o1 [Example I-267] | > 100
13 | CN(C)C(=O)c1cc2cc(C3=CCCN(C(=O)CCc4ccccn4)C3)ccc2o1 [Example I-268] | > 100
14 | CN(C)C(=O)c1cc2ccc(C3=CCCN(C(=O)CCn4ccnn4)C3)cc2s1 [Example I-269] | 10 to 100
15 | CN(C)C(=O)c1cc2cc(C3=CCCN(C(=O)Cc4ccncn4)C3)ccc2o1 [Example I-270] | > 100
16 | CN(C)C(=O)c1cc2cc(C3=CCCN(C(=O)Cc4coc5ccccc45)C3)ccc2o1 [Example I-271] | > 100
17 | CN(C)C(=O)c1cc2cc(C3=CCCN(C(=O)CCc4cncnc4)C3)ccc2o1 [Example I-272] | > 100
18 | CN(C)C(=O)c1cc2cc(C3=CCCN(C(=O)Cc4ccc5ncccc5c4)C3)ccc2o1 [Example I-273] | > 100
19 | CN(C)C(=O)c1cc2cc(C3=CCCN(C(=O)Cn4ccc5ccccc54)C3)ccc2o1 [Example I-274] | > 100
20 | CN(C)C(=O)c1cc2cc(C3=CCCN(C(=O)Cc4cccnc4)C3)ccc2o1 [Example I-275] | > 100
21 | CN(C)C(=O)c1cc2cc(C3=CCCN(C(=O)Cc4cnc5ccccn45)C3)ccc2o1 [Example I-276] | > 100

Row | Compound | IC50 [µM]
22 | O=C(CCn1ccnn1)N1CCC=C(c2c[nH]c3cc(-n4ccccc4=O)ccc23)C1 [Example I-277] | > 100
23 | O=C(CCn1ccnn1)N1CCC=C(c2ccc3occc3c2)C1 [Example I-278] | > 100
24 | CN(C)C(=O)c1cc2cc(C3=CCCN(C(=O)Cc4ccncc4)C3)ccc2o1 [Example I-279] | > 100
25 | CN(C)C(=O)c1cc2cc(C3=CCCN(C(=O)CCc4ccc5c(c4)OCCO5)C3)ccc2o1 [Example I-280] | > 100
26 | CN(C)C(=O)c1cc2cc(C3=CCCN(C(=O)CCc4cn5cccnc5n4)C3)ccc2o1 [Example I-281] | > 100
27 | CN(C)C(=O)c1cc2cc(C3=CCCN(C(=O)CCc4ccc5c(c4)OCO5)C3)ccc2o1 [Example I-282] | > 100
28 | CN(C)C(=O)c1cc2cc(C3=CCCN(C(=O)Cc4ccccc4)C3)ccc2o1 [Example I-283] | > 100
29 | CN(C)C(=O)c1cc2cc(C3=CCCN(C(=O)Cn4ncc5ccccc54)C3)ccc2o1 [Example I-284] | > 100
30 | CN(C)C(=O)c1cc2cc(C3=CCCN(C(=O)C4Cc5ccccc5CN4C)C3)ccc2o1 (centres unmarked) [Example I-285] | > 100
31 | CN(C)C(=O)c1cc2cc(C3=CCCN(C(=O)Cc4ccc5ncnn5c4)C3)ccc2o1 [Example I-286] | > 100
32 | CC(=O)Nc1ccc(CC(=O)N2CCC=C(c3ccc4oc(C(=O)N(C)C)cc4c3)C2)cc1 [Example I-287] | > 100
33 | CN(C)C(=O)c1cn2ccc(C3=CCCN(C(=O)CCn4ccnn4)C3)cc2n1 [Example I-289] | > 100
34 | CN(C)C(=O)c1cc2cc(C3=CCCN(C(=O)CCc4cccc5ccccc45)C3)ccc2o1 [Example I-291] | > 100
35 | CN(C)C(=O)c1cc2cc(C3=CCCN(C(=O)Cc4nc5ccccc5o4)C3)ccc2o1 [Example I-292] | > 100
36 | CN(C)C(=O)c1cc2cc(C3=CCCN(C(=O)Cc4cncnc4)C3)ccc2o1 [Example I-293] | > 100
37 | CN(C)C(=O)c1cc2cc(C3=CCCN(C(=O)Cc4cccc5ccccc45)C3)ccc2o1 [Example I-294] | > 100
38 | CN(C)C(=O)c1cc2cc(C3=CCCN(C(=O)Cc4ccc5ccccc5c4)C3)ccc2o1 [Example I-295] | > 100
39 | CN(C)C(=O)c1cc2cc(C3=CCCN(C(=O)CN4CCc5ccccc5C4)C3)ccc2o1 [Example I-296] | > 100
40 | CN(C)C(=O)c1cc2cc(C3=CCCN(C(=O)Cc4ccc5nccnc5c4)C3)ccc2o1 [Example I-297] | > 100
41 | CN(C)C(=O)c1cc2ccc(C3=CCCN(C(=O)CCn4ccnn4)C3)cn2n1 [Example I-298] | > 100
42 | CN(C)C(=O)c1cc2cc(C3=CCCN(C(=O)CCc4cccs4)C3)ccc2o1 [Example I-299] | > 100

Row | Compound | IC50 [µM]
43 | CN(C)C(=O)c1cc2cc(C3=CCCN(C(=O)CCc4c[nH]c5ccccc45)C3)ccc2o1 [Example I-300] | > 100
44 | CN(C)C(=O)c1cc2cc(C3=CCCN(C(=O)CCc4cccnc4)C3)ccc2o1 [Example I-301] | > 100
45 | CN(C)C(=O)c1cc2cc(C3=CCCN(C(=O)Cc4n[nH]c5ccccc45)C3)ccc2o1 [Example I-302] | > 100
46 | CN(C)C(=O)c1cc2ccc(C3=CCCN(C(=O)CCn4ccnn4)C3)c(F)c2[nH]1 [Example I-304] | < 0.1
47 | CN(C)C(=O)c1cc2cc(C3CCCN(C(=O)CCn4ccnn4)C3)ccc2o1 (centres unmarked) [Example I-305] | > 100
48 | CN(C)C(=O)c1cc2cc(C3=CCCN(C(=O)Cc4ccc5c(c4)OCCO5)C3)ccc2o1 [Example I-306] | > 100
49 | O=C(NCCO)c1cc2cc(C3=CCCN(C(=O)CCn4ccnn4)C3)ccc2o1 [Example I-307] | > 100
50 | CN(C)C(=O)c1cc2cc(C3=CCCN(C(=O)CCn4ccnn4)C3)ccc2[nH]1 [Example I-308] | > 100
51 | CN(C)C(=O)c1cc2cc(C3=CCCN(C(=O)Cc4c[nH]c5ncccc45)C3)ccc2o1 [Example I-309] | > 100
52 | CN(C)C(=O)c1cc2cc(C3=CCCN(C(=O)CCn4ccnc4)C3)ccc2o1 [Example I-310] | > 100
53 | CN(C)C(=O)c1cc2cc(C3=CCCN(C(=O)Cn4ccnc4)C3)ccc2o1 [Example I-311] | > 100
54 | CN(C)C(=O)c1cc2cc(C3=CCCN(C(=O)CCc4ccccc4)C3)ccc2o1 [Example I-312] | > 100
55 | CN(C)C(=O)c1cc2cc(C3=CCCN(C(=O)CCc4ccncc4)C3)ccc2o1 [Example I-313] | > 100
56 | CN(C)C(=O)c1cc2cc(C3=CCCN(C(=O)Cn4cncn4)C3)ccc2o1 [Example I-315] | > 100
57 | CN(C)C(=O)c1cc2ccc(C3=CCCN(C(=O)Cn4ccccc4=O)C3)cc2[nH]1 [Example I-316] | > 100
58 | CN(C)C(=O)c1ccc2c(C3=CCCN(C(=O)CCn4ccnn4)C3)c[nH]c2c1 [Example I-317] | > 100
59 | Cc1cn(CCC(=O)N2CCC=C(c3ccc4cc(C(=O)N(C)C)[nH]c4c3)C2)nn1 [Example I-319] | > 100
60 | CN(C)C(=O)c1cc2ccc(C3=CCCN(C(=O)C4CC4c4ccn(C)n4)C3)cc2[nH]1 (centres unmarked) [Example I-321] | 10 to 100
61 | CN(C)C(=O)c1cc2ccc(C3=CCCN(C(=O)C4CC4F)C3)cc2[nH]1 (centres unmarked) [Example I-322] | 10 to 100
62 | CN(C)C(=O)c1cc2c(F)c(C3=CCCN(C(=O)CCn4ccnn4)C3)ccc2o1 [Example I-323] | 0.1 to 1
